In patent publication US8022206B2 (OSI Pharmaceuticals, LLC, priority 2008, dated 2011):
Read-outs that look alike come from different tables or passages of the source.

Legend:
MET (human) = MET (human) (Homo sapiens, UniProt P08581); assay: MET (human) AlphaScreen kinase assay, Km of ATP; type: biochemical
How it was run: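 Human MET at lot-optimised concentration in 50 mM Tris pH 7.4 buffer with 1 mM DTT, compound at 1% DMSO final; enzyme starts the reaction, 60 min at RT.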

RON (human) = RON (human) (Homo sapiens, UniProt Q04912); assay: RON (human) AlphaScreen kinase assay, Km of ATP; type: biochemical
Sequence of RON (human) (Q04912 25-1400): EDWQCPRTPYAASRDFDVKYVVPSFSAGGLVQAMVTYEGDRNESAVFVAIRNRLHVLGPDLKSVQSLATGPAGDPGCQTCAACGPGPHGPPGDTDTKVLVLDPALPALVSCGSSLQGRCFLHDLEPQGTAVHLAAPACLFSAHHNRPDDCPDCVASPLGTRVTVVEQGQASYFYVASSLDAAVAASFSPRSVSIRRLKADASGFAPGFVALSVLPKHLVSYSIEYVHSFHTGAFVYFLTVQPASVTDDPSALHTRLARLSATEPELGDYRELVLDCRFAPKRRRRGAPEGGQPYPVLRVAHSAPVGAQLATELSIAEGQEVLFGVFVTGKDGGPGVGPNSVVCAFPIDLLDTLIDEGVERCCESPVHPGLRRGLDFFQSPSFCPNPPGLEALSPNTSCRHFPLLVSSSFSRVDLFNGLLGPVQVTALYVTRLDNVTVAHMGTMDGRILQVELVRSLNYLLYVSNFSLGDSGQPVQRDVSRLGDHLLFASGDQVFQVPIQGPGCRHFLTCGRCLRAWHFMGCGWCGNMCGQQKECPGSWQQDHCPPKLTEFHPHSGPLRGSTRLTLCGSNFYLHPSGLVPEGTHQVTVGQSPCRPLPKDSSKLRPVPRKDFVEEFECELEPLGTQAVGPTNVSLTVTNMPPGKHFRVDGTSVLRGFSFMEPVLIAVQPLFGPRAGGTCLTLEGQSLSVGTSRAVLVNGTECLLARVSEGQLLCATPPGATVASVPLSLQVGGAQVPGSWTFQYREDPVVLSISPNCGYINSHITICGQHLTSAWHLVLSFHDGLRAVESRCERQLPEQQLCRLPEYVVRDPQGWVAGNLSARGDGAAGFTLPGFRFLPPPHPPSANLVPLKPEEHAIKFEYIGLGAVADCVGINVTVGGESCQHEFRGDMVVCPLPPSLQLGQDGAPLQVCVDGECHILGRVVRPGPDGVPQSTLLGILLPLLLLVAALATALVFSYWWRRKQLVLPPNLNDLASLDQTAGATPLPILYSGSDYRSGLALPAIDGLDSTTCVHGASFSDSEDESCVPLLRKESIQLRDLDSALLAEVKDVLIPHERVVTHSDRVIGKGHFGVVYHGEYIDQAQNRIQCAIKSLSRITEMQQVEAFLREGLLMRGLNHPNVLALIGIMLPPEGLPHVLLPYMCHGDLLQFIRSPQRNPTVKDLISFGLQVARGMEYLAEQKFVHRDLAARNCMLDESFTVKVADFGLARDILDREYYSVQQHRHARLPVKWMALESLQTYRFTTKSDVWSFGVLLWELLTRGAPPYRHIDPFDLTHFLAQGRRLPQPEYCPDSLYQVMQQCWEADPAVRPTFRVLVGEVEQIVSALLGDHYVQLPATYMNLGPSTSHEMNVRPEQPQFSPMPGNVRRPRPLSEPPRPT
How it was run: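 Reaction was started with enzyme and run 30 min at RT. PT66 donor/acceptor beads in an EDTA-containing Tris pH 7.5 buffer were then added, and the signal was read after 1 h.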

[1] = AlphaScreen, Km of ATP, read-out: Met biochemical IC50
[2] = AlphaScreen, Km of ATP, read-out: RON biochemical IC50

Sequence of MET (human) (P08581 25-1390): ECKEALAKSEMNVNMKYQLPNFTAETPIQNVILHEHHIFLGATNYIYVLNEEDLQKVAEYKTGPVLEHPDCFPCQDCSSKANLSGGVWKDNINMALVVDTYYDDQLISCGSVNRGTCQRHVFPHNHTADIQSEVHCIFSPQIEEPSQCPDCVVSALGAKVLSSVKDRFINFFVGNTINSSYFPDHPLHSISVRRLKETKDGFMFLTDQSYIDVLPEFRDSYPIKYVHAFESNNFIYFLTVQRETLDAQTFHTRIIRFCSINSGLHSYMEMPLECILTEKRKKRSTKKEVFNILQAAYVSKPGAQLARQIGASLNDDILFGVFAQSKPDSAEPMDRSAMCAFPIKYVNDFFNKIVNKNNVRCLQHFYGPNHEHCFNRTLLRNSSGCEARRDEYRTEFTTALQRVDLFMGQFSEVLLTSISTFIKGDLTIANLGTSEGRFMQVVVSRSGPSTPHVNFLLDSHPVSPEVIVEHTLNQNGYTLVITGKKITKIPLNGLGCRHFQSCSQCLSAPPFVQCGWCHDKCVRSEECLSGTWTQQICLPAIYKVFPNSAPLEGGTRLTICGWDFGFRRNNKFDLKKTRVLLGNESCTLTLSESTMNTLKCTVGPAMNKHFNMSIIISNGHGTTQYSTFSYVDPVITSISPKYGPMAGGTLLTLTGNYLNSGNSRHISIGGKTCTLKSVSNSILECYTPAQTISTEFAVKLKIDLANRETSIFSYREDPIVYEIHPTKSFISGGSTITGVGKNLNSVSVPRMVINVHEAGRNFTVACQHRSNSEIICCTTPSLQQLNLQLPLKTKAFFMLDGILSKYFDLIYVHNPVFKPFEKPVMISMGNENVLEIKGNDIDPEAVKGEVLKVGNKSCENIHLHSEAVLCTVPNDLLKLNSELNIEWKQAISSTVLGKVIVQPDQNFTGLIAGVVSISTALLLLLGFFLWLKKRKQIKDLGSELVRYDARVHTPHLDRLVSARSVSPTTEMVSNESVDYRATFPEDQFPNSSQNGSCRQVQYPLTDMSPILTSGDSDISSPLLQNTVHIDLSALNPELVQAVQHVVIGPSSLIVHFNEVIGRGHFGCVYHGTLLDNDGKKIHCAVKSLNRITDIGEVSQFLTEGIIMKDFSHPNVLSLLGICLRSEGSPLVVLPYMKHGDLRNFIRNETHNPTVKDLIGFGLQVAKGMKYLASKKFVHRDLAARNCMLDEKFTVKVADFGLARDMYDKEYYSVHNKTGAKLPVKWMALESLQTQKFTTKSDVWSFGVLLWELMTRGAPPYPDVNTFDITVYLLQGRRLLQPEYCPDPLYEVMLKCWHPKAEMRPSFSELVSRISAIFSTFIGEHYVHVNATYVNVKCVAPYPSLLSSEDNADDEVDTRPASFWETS

In the case of `CC(Oc1c(N)ncc2c(-c3cnn(C4CCNCC4)c3)coc12)c1ccc(C#N)cc1` (stereo not drawn) [Example 394, 4-{1-[6-Amino-3-(1-piperidin-4-yl-1H-pyrazol-4-yl)furo[3,2-c]pyridin-7-yloxy]ethyl}benzonitrile], the IC50 (MET (human); [1]) is reported as < 500 nM and the IC50 (RON (human); [2]) is reported as 500 to 5000 nM.
With `CCNC(=O)N1CC=C(c2coc3c(O[C@H](C)c4c(Cl)ccc(F)c4Cl)c(N)ncc23)CC1` [Example 151, 4-{6-Amino-7-[(1R)-1-(2,6-dichloro-3-fluorophenyl)ethoxy]furo[3,2-c]pyridin-3-yl}-N-ethyl-3,6-dihydropyridine-1(2H)-carboxamide] the IC50 (MET (human); [1]) was < 500 nM and the IC50 (RON (human); [2]) was 500 to 5000 nM.
With `CCC(=O)N1CC=C(c2coc3c(O[C@H](C)c4c(Cl)ccc(F)c4Cl)c(N)ncc23)CC1` [Example 14, 1-(4-{6-Amino-7-[(R)-1-(2,6-dichloro-3-fluorophenyl)-ethoxy]-furo[3,2-c]pyridin-3-yl}-3,6-dihydro-2H-pyridin-1-yl)-propan-1-one] the IC50 (MET (human); [1]) was < 500 nM and the IC50 (RON (human); [2]) was 500 to 5000 nM.
With `C[C@@H](Oc1c(N)ncc2c(-c3ccc(CN4CCSCC4)s3)coc12)c1c(Cl)ccc(F)c1Cl` [Example 219, 7-[(R)-1-(2,6-Dichloro-3-fluorophenyl)ethoxy]-3-(5-thiomorpholin-4-ylmethylthiophen-2-yl)furo[3,2-c]pyridin-6-ylamine] the IC50 (MET (human); [1]) was 500 to 5000 nM and the IC50 (RON (human); [2]) was 500 to 5000 nM.
`C[C@@H](Oc1c(N)ncc2c(-c3csc(C=O)c3)coc12)c1c(Cl)ccc(F)c1Cl` [Example 302, 4-{6-Amino-7-[(R)-1-(2,6-dichloro-3-fluorophenyl)ethoxy]furo[3,2-c]pyridin-3-yl}thiophene-2-carbaldehyde] gave an IC50 (MET (human); [1]) of 500 to 5000 nM and an IC50 (RON (human); [2]) of 500 to 5000 nM.
`CC(Cc1ccccc1C(F)(F)F)Oc1c(N)ncc2c(-c3cnn(C4CCNCC4)c3)coc12` (stereo not drawn) [Example 435, 7-[1-Methyl-2-(2-trifluoromethylphenyl)ethoxy]-3-(1-piperidin-4-yl-1H-pyrazol-4-yl)furo[3,2-c]pyridin-6-ylamine] was tested, and the IC50 (MET (human); [1]) was < 500 nM and the IC50 (RON (human); [2]) was 500 to 5000 nM.
With `C[C@@H](Oc1c(N)ncc2c(-c3cnn(C4CCNCC4)c3)c(Br)oc12)c1c(Cl)ccc(F)c1Cl` [Example 167, 2-Bromo-7-[(R)-1-(2,6-dichloro-3-fluorophenyl)ethoxy]-3-(1-piperidin-4-yl-1H-pyrazol-4-yl)-furo[3,2-c]pyridin-6-ylamine] the IC50 (MET (human); [1]) was < 500 nM and the IC50 (RON (human); [2]) was 500 to 5000 nM.
With `CC(Cc1c(Cl)cccc1Br)Oc1c(N)ncc2c(-c3cnn(C4CCNCC4)c3)coc12` (stereo not drawn) [Example 371, 7-[2-(2-Bromo-6-chlorophenyl)-1-methylethoxy]-3-(1-piperidin-4-yl-1H-pyrazol-4-yl)furo[3,2-c]pyridin-6-ylamine] the IC50 (MET (human); [1]) was < 500 nM and the IC50 (RON (human); [2]) was 500 to 5000 nM.
`C[C@@H]1CN(C(=O)c2ccc(-c3coc4c(O[C@H](C)c5c(Cl)ccc(F)c5Cl)c(N)ncc34)cc2)C[C@H](C)N1` (relative stereo) [Example 294, (4-{6-Amino-7-[(R)-1-(2,6-dichloro-3-fluorophenyl)ethoxy]furo[3,2-c]pyridin-3-yl}phenyl)-((3S*,5R*)-3,5-dimethylpiperazin-1-yl)methanone] was tested, and the IC50 (MET (human); [1]) was < 500 nM and the IC50 (RON (human); [2]) was < 500 nM.
Compound `COC(=O)c1cccc(C(C)Oc2c(N)ncc3c(-c4cnn(C5CCNCC5)c4)coc23)c1` (stereo not drawn) [Example 410, 3-{1-[6-Amino-3-(1-piperidin-4-yl-1H-pyrazol-4-yl)furo[3,2-c]pyridin-7-yloxy]ethyl}benzoic acid methyl ester] has an IC50 (MET (human); [1]) of 500 to 5000 nM and an IC50 (RON (human); [2]) of 500 to 5000 nM.
For `CC(Oc1c(N)ncc2c(-c3cnn(C4CCNCC4)c3)coc12)c1ccccc1OC(F)(F)F` (stereo not drawn) [Example 354, 3-(1-Piperidin-4-yl-1H-pyrazol-4-yl)-7-[1-(2-trifluoromethoxy-phenyl)ethoxy]furo[3,2-c]pyridin-6-ylamine], the IC50 (MET (human); [1]) was 500 to 5000 nM and the IC50 (RON (human); [2]) was 500 to 5000 nM.
`C[C@@H](Oc1c(N)ncc2c(-c3ccc(CN4CCCCC4)s3)coc12)c1c(Cl)ccc(F)c1Cl` [Example 215, 7-[(R)-1-(2,6-Dichloro-3-fluorophenyl)ethoxy]-3-(5-piperidin-1-ylmethylthiophen-2-yl)-furo[3,2-c]pyridin-6-ylamine] was tested, and the IC50 (MET (human); [1]) was < 500 nM and the IC50 (RON (human); [2]) was < 500 nM.
For `COc1ccc(-c2coc3c(O[C@H](C)c4c(Cl)ccc(F)c4Cl)c(N)ncc23)cc1` [Example 69, 7-[(R)-1-(2,6-Dichloro-3-fluorophenyl)ethoxy]-3-(4-methoxyphenyl)-furo[3,2-c]pyridin-6-ylamine], the IC50 (MET (human); [1]) was 500 to 5000 nM and the IC50 (RON (human); [2]) was 500 to 5000 nM.
Work on `C[C@@H](Oc1c(N)ncc2c(C(=O)NC(C)(C)C)coc12)c1c(Cl)ccc(F)c1Cl` [Example 184, 6-Amino-7-[(R)-1-(2,6-dichloro-3-fluorophenyl)ethoxy]furo[3,2-c]pyridine-3-carboxylic acid tert-butylamide] yielded an IC50 (MET (human); [1]) of 500 to 5000 nM and an IC50 (RON (human); [2]) of 5000 to 20000 nM.
`C[C@@H](Oc1c(N)ncc2c(-c3cnn(C4CCNCC4)c3)c(C#N)oc12)c1c(Cl)ccc(F)c1Cl` [Example 169, 6-Amino-7-[(R)-1-(2,6-dichloro-3-fluorophenyl)ethoxy]-3-(1-piperidin-4-yl-1H-pyrazol-4-yl)-furo[3,2-c]pyridine-2-carbonitrile] was tested, and the IC50 (MET (human); [1]) was 500 to 5000 nM and the IC50 (RON (human); [2]) was 500 to 5000 nM.
With `C[C@@H](Oc1c(N)ncc2c(-c3ccc(O)cc3)coc12)c1c(Cl)ccc(F)c1Cl` [Example 59, 4-{6-Amino-7-[(R)-1-(2,6-dichloro-3-fluorophenyl)ethoxy]-furo[3,2-c]pyridin-3-yl}phenol] the IC50 (MET (human); [1]) was 500 to 5000 nM and the IC50 (RON (human); [2]) was 500 to 5000 nM.
In the case of `C[C@@H](Oc1c(N)ncc2c(-c3ccc(NCCN4CCOCC4)nc3)coc12)c1c(Cl)ccc(F)c1Cl` [Example 104, 7-[(R)-1-(2,6-Dichloro-3-fluorophenyl)ethoxy]-3-[6-(2-morpholin-4-yl-ethylamino)pyridin-3-yl]furo[3,2-c]pyridin-6-ylamine], the IC50 (MET (human); [1]) is reported as < 500 nM and the IC50 (RON (human); [2]) is reported as 500 to 5000 nM.
`COC(=O)N1CCC(n2cc(-c3coc4c(O[C@H](C)c5c(Cl)ccc(F)c5Cl)c(N)ncc34)cn2)CC1` [Example 274, Methyl 4-(4-{6-Amino-7-[(1R)-1-(2,6-dichloro-3-fluorophenyl)ethoxy]furo[3,2-c]pyridin-3-yl}-1H-pyrazol-1-yl)piperidine-1-carboxylate] was tested, and the IC50 (MET (human); [1]) was 500 to 5000 nM and the IC50 (RON (human); [2]) was 500 to 5000 nM.
`C[C@@H](Oc1c(N)ncc2c(-c3cccc(NS(=O)(=O)CCC(F)(F)F)c3)coc12)c1c(Cl)ccc(F)c1Cl` [Example 248, 3,3,3-Trifluoropropane-1-sulfonic acid (3-{6-amino-7-[(R)-1-(2,6-dichloro-3-fluorophenyl)ethoxy]-furo[3,2-c]pyridin-3-yl}phenyl)amide] gave an IC50 (MET (human); [1]) of 500 to 5000 nM and an IC50 (RON (human); [2]) of 5000 to 20000 nM.
Work on `C[C@@H](Oc1c(N)ncc2c(-c3ccc(C(=O)N4CCC(=O)CC4)cc3)coc12)c1c(Cl)ccc(F)c1Cl` [Example 284, 1-(4-{6-Amino-7-[(R)-1-(2,6-dichloro-3-fluorophenyl)-ethoxy]furo[3,2-c]pyridin-3-yl}benzoyl)piperidin-4-one] yielded an IC50 (MET (human)) of 500 to 5000 nM and an IC50 (RON (human)) of 500 to 5000 nM.
Work on `CCNC(=O)c1cc(-c2coc3c(O[C@H](C)c4c(Cl)ccc(F)c4Cl)c(N)ncc23)cs1` [Example 314, 4-{6-Amino-7-[(R)-1-(2,6-dichloro-3-fluorophenyl)ethoxy]furo[3,2-c]pyridin-3-yl}-thiophene-2-carboxylic acid Ethylamide] yielded an IC50 (MET (human); [1]) of 500 to 5000 nM and an IC50 (RON (human); [2]) of 500 to 5000 nM.
